Consider one compound from patent US20120114636A1, “LOW MOLECULAR WEIGHT CYCLIN E (LMW-E) AS A BIOMARKER FOR PERSONALIZATION OF CANCER THERAPIES” (The Board of Regents of the University of Texas System, priority 2009, published 2012).

In general, inhibition refers to the drop in the measured response relative to a control, in per cent.

The structures appear in SMILES notation.

Test [1] concerns MCF-7/Ac1 cells. The test can be described thus: Cell growth by cell counting, AD-stimulated cells. The test is classed as cell-based, human. Conditions: Homo sapiens, MCF7, 72 h, with 25 nM AD, 3 days, read-out: inhibition of AD-induced growth. Here is the method:
Cell growth. The effects of the aromatase inhibitors on MCF7/Ac1 cells growth were examined by counting the cells at the indicated time. The cells were detached from their flask using trypsin and counted using a Coulter counter machine.
To examine the effects of the three different aromatase inhibitors on the proliferation of MCF-7/Ac1 cells, cells were cultured in estrogen deprived, charcoal stripped serum media (CSSM). The response of the cells to 25 nM of androstenedione (AD) alone or AD plus one of the 3 aromatase inhibitors letrozole (FIG. 22A), anastrozole (FIG. 22B), and exemestane (FIG. 22C) was measured after 3 days of treatment. Cells maintained in CSSM were used as controls.
FIGS. 22A-22C show the effect of aromatase inhibitor treatment on proliferative response and cell cycle distribution of MCF-7/Ac1 cells. Cells were cultured in IMEM with 10% charcoal-stripped serum medium (CSSM) without phenol red and with 600 μg/ml of G418 for 4 days before plating. Cells (100,000) were seeded in 100 mm dishes and, 24 hrs later, were exposed for 3 days to the specific treatment. […] CSSM, untreated cells cultured in charcoal-stripped serum medium without phenol red and with 600 μg/ml of G418.

Test [2] relates to MCF-7/Ac1 cells. As to the kind of experiment: S-phase fraction by flow cytometry of adenovirus-infected cells. The test is classed as cell-based, human. Conditions: 1 μM letrozole with 25 nM AD. Here is the method: Flow cytometry analysis. Cells were pelleted and resuspended in 1.5 ml of PBS, then fixed in 3.5 ml of 95% ethanol overnight at −20° C. After being washed, the pellets were resuspended in a solution of PBS containing 10 μg/ml propidium iodide, 20 μg/ml RNase A, 0.5% Tween 20, and 0.5% BSA and incubated at 37° C. for 30 min. The profiles of cells in the G0-G1, S, and G2-M phases of the cell cycle were analyzed at the M. D. Anderson Cancer Center Cytometry Core Facility on a FACS Caliber machine equipped with Cellquest or ModFit software.
LMW cyclin E, but not full-length cyclin E, overexpressing MCF-7/Ac1 cells partially override the letrozole inhibition of AD-induced S-phase entry and AD-induced CDK2 protein levels. Since overexpression of LMW cyclin E deregulates the G1 to S transition, the inventors interrogated the role of full-length and LMW cyclin E in letrozole response. To this end, the inventors examined the sensitivity of cyclin E overexpressing MCF-7/Ac1 cells to the growth inhibitory effect of letrozole using adenoviruses to overexpress full-length and LMW cyclin E (FIGS. 24A-24D). MCF-7/Ac1 cells were cultured in charcoal stripped serum media (CSSM) for 4 days before infecting them with 4000 m.o.i. of either LacZ, full-length cyclin E (cyclin EL) or LMW cyclin E (cyclin E-T1 and cyclin E-T2). Twenty-four hours later, cells were left either untreated, treated with 25 nM AD alone, or treated with 25 nM AD plus 1 μM letrozole for an additional 3 days (FIGS. 24A-24B). Following the treatment, cells were enumerated or subjected to flow cytometry analysis.
MCF-7/Ac1 cells were cultured in IMEM with 10% charcoal-stripped serum medium (CSSM) without phenol red and with 600 μg/ml of G418 for 4 days before plating. Triplicate wells of 6-well plates were then infected with the indicated adenoviruses (at 4000 m.o.i.) 24 hours before drug treatment. Cells were then left untreated (E2W, estrogen withdrawal) or treated with 25 nM AD (AD) or treated with 25 nM AD and 1 μM letrozole (AD+Let) and collected 3 days later for cell number. Cell growth is expressed as the percentage of the cells compared with the control cells (25 nM AD treated cells). […] MCF-7/Ac1 cells were treated as described in A, and collected for flow cytometry analysis. Histograms represent the S-phase fraction expressed as the percentage of the cells in S-phase compared with the control cells (25 nM AD treated cells). […] The same cell lysates as in A and B were subjected to western blot analysis (50 μg of protein) with cyclin E and CDK2 antibodies. The bar graph represents the densitometric values of the phosphorylated CDK2 bands. […] Left, MCF-7/Ac1 cells were cultured in IMEM with 10% charcoal-stripped serum medium (CSSM) without phenol red and with 600 μg/ml of G418 for 4 days before plating. Cells were then infected with the indicated adenoviruses (at 4000 m.o.i.) 24 hours before drug treatment. Cells were then treated with 25 nM AD and 1 μM letrozole and collected 3 days later for cell number. […] Columns, mean of two to three experiments, each in triplicates; bars, S.D.
(In general: In flow cytometry, cells or beads pass a laser one at a time.)

Turning to `N#Cc1ccc(C(c2ccc(C#N)cc2)n2cncn2)cc1` [letrozole], the inhibition at 0.1 µM with MCF-7/Ac1 cells [1] (0.1 μM) was 37.2%. Also, the inhibition at 1 µM in the test on MCF-7/Ac1 cells [1] (1 μM) stood at 63.5%. The “decrease in number of cells in S phase” value was found to be 37% with MCF-7/Ac1 cells [2] (LacZ-infected cells); 16% with MCF-7/Ac1 cells [2] (cyclin E-T1-infected cells); 21% in the test on MCF-7/Ac1 cells [2] (cyclin E-T2-infected cells); 42% with MCF-7/Ac1 cells [2] (cyclin EL-infected cells); 62% in the test on MCF-7/Ac1 cells [2] (uninfected cells).
